Source: patent publication EP1060742A1, “INTERSTITIAL ADENOSINE LEVEL-ELEVATING AGENTS” (priority 1998, dated 1999)

Assays:
[1] = system: cardiomyopathic Syrian hamsters (Bio 14.6 strain); assay: Heart failure and myocardiopathy test in cardiomyopathic hamsters, oral dosing for 87 days; type: in vivo, hamster; details: for AST (GOT) level / LDH level: day 30, 60mg/kg/day
Procedure: (§1) Male aged-matched normal healthy golden hamsters (F1B strain) were used as control animals. These hamsters were purchased from Biobreeders Inc. Throughout the test period, the animals were housed in stainless steel cage in a temperature (23 ± 1C° )controlled room where a daily light-dark cycle was maintained artificially at 12 hours intervals. The animals were fed with commercially available pellet (CE-2, CLEA Japan, Inc.) and provided adde libitum with feed pellets and water. Incidentally, after they were purchased, the animals were acclimated to the above environment at least one week before subjected to experiments.
The test compound was suspended in a 0.5% sodium carboxymethyl cellulose (CMC-Na) solution. This dosing solution was orally administered for 87 days at dosages of 30mg/kg/day and 60mg/kg/day and a dose volume of 20ml/kg.
Captopril was used as a control compound. The compound was similarly suspended in a 0.5% CMC-Na solution and was orally administered for 87 days at a dosage of 60mg/kg/day and a dose volume of 20ml/kg.
A group of animals administered with a 0.5% CMC-Na solution served as a vehicle control group. The solution was administered once daily from Monday through Friday but not on Saturdays and Sundays.
(§2) Body weight was recorded on every Monday and Thursday after the administration of the test compound. […]
Blood samples were collected before administration of the test compound, and 45 and 88 days after administration. The blood samples were collected from venous plexus of eyegrounds under anesthesia by ether. Blood plasma was separated from the samples and plasma norepinephrine (NE) levels were measured using a catecholamine assay system.
Myocardial tissue preparations were prepared 88 days after the administration was started. The animals were sacrificed by exsanguination under anesthesia by ether. Chests were opened and hearts extirpated. Weight of the hearts was measured and the hearts were fixed in a 10% buffered neutral formaldehyde solution. Bases of the hearts were sliced to a 3mm thickness and formed into paraffin slices with respect to the side of the base using ordinary methods. The slices were stained with kossa, hematoxylin/eosin (H&E) and H&E/aniline blue stains. The preparations of the hearts so prepared were measured in area for regions of cardiac fibrosis, mineral deposition, myocardial necrosis, and macrophage infiltration, using an image analyzing system (Mac SCOPE Ver.2.1, Mitsuya Shoji).
(§3) Measurements were expressed in mean ± S.E., and tests for significant differences between the respective groups were performed using Dunnett's multiple comparison test.

[2] = system: male ICR mice; assay: Toxicity test, subcutaneous administration to mice, observed for one week; type: in vivo
[3] = system: mice; assay: Toxicity test, oral administration to fasted mice, observed for two weeks, LD50 by the Richfield-Wilcockson method; type: in vivo; details: 0.025N hydrochloric acid-saline solution, after 16-hour fasting, observed for two weeks
Procedure: (§4) LD50 was determined using the Richfield-Wilcockson method.

[4] = as above; type: in vivo; details: mouse, in vivo, mice, Richfield-Wilcockson method
Procedure: as §4

[5] = system: myocardial adenosine level; assay: Effects on myocardial adenosine level in extirpated, Langendorff-perfused rat hearts (HPLC); details: 10^-5 M, 15-minute perfusion, compared to vehicle control group (0.04% DMSO)
Procedure: Male Sprange-Dawley rats aged 7 to 8 weeks were used. Hearts were extirpated under anesthesia by pentobarbital (50mg/kg, intra-abdominally injected) and were suspended in a Langendorff's apparatus.
The hearts were then frozen with liquid nitrogen. 10 equivalents of 0.6N perchloric acid were added to the frozen tissue and the tissue was homogenized and neutralized by 1N KOH and was then centrifuged. After centrifugation, the level of adenosine in the supernatant was measured by HPLC.
Propranol was used as a control compound for the test and 0.04% DMSO solution was used as a vehicle control.
as §3

[6] = system: cardiomyopathic Syrian hamsters (Bio 14.6 strain); assay: Heart failure and myocardiopathy test in cardiomyopathic hamsters, oral dosing for 87 days; type: in vivo, hamster; details: Bio 14.6 hamsters, 30, 60 and 88 days, all tests other than AST (GOT) and LDH on day 30 at 60mg/kg/day
[7] = system: normal healthy golden hamsters (F1B strain); details: hamster, in vivo
Procedure: as §1, with “Male cardiomyopathic Syrian hamsters (Bio 14.6 strain) aged 7 weeks were used. Male” for “Male”, “Incidentally, after they were purchased, the animals were acclimated to the above environment at least one week before subjected to experiments.” left out
as §2
Blood samples were collected before administration of the test compound, and 45 and 88 days after administration. […] Blood plasma was separated from the samples and plasma norepinephrine (NE) levels were measured using a catecholamine assay system.
Myocardial tissue preparations were prepared 88 days after the administration was started. […] Weight of the hearts was measured and the hearts were fixed in a 10% buffered neutral formaldehyde solution. […] The preparations of the hearts so prepared were measured in area for regions of cardiac fibrosis, mineral deposition, myocardial necrosis, and macrophage infiltration, using an image analyzing system (Mac SCOPE Ver.2.1, Mitsuya Shoji). […]

[8] = Bio 14.6 hamsters, 88 days after administration, 60mg/kg/day, compared to vehicle control group
[9] = Bio 14.6 hamsters, day 88, 60mg/kg/day oral
[10] = Bio 14.6 hamsters, day 88, 60mg/kg/day, image analysis
[11] = Bio 14.6 hamsters, day 88, 30mg/kg/day, image analysis

C[C@H](CS)C(=O)N1CCC[C@H]1C(=O)O [captopril, reference compound]
plasma NE level [1, 8]: The same results were obtained
AST (GOT) level ([1]; Bio 14.6 hamsters): tendency of decrease
LDH level ([1]; Bio 14.6 hamsters): tendency of decrease
relative heart weight [1, 9]: The same results were obtained
area of cardiac lesions [1, 10]: significant decrease in area
area of regions of fibrosis [1, 10]: significant decrease in area
area of regions of macrophage infiltration [1, 10]: significant decrease in area
area of regions of myocardial necrosis [1, 10]: significant decrease in area

COC(=O)C12C(O)C(C(=O)Cc3ccccn3)=NN1C(c1ccccc1)C=CC2c1ccccc1 (centres unmarked) [compound No.1, 2,5-diphenyl-7-hydroxy-6-methoxycarbonyl-8-(2-pyridyl)acetyl-1,9-diazabicyclo[4.3.0]-nona-3,8-dien]
clinical observations related to treatment ([2]; mouse, in vivo, sc): no clinical observations
mortality ([2]; subcutaneous, 10ml/kg of a 10% aqueous polyethylene glycol 400 solution, observed for one week): no mortality
clinical observations [3]: no clinical observations
mortality [3]: no mortality
LD50 at 336 h [4]: > 100 mg/kg
myocardial adenosine level [5]: increased three-fold
clinical chemistry tests (all the other tests) [6]: no effect
plasma NE level ([1]; 45 days after administration, each dosage, compared to vehicle control groups, strain not specified in the sentence (Fig.4)): did not have significant effects
plasma NE level [1, 8]: significantly lower level
plasma NE level ([1]; Bio 14.6 hamsters, 88 days after administration, across 30 and 60mg/kg/day): decrease in a dose-dependent manner
AST (GOT) level ([1]; Bio 14.6 hamsters): tendency of decrease
LDH level ([1]; Bio 14.6 hamsters): tendency of decrease
relative heart weight ([1]; Bio 14.6 hamsters, day 88, 30mg/kg/day oral): significant suppression of increase
area of cardiac legions (sum of the areas of necrosis, macrophage infiltration and fibrosis) [1, 11]: significant decrease in area
area of regions of fibrosis [1, 11]: significant decrease in area
area of regions of macrophage infiltration [1, 11]: significant decrease in area
area of regions of myocardial necrosis [1, 11]: significant decrease in area
relative heart weight [1, 9]: significant suppression of increase
area of regions of macrophage infiltration [1, 10]: significant decrease in area
area of regions of myocardial necrosis [1, 10]: significant decrease in area
relative liver weight ([1]; Bio 14.6 hamsters, day 88, oral): did not have effects
changes in body weight ([1]; Bio 14.6 hamsters, each dosage (30mg/kg/day and 60mg/kg/day), oral): did not affect
clinical chemistry tests [7]: no effect

CC(C)NCC(O)COc1cccc2ccccc12 (centres unmarked) [propranol, reference compound]
myocardial adenosine level [5]: no significant difference
